Source: patent publication US12139520B2 (priority 2020, dated 2024)
Numbered stars: 1 amine (or outer) side, 2 acyl side, 3 side chain; on linkers, the order of the positions; unused ones are H or OH. Bridge positions count the residues as written; N and C are the ends. Square brackets hold non-standard residues; d marks the D form. Peptide text beside a SMILES is read from it. * marks the point of attachment. C20 diacid = O=C(O)CCCCCCCCCCCCCCCCCCC(=O)*; γGlu = O=C(O)[C@H](CCC(=O)[*:2])N[*:1]; Hyp = O=C(O)[C@@H]1C[C@@H](O)CN1

Legend:
[1] = target: hAM1 receptor (Homo sapiens, UniProt O60895+Q16602); assay: cAMP assay for in vitro receptor activation, hAM1-R; type: cell-based; details: cAMP assay, hAM1 receptor; read-out: hAM1R EC50
hAM1 receptor, sequence (Q16602 23-461): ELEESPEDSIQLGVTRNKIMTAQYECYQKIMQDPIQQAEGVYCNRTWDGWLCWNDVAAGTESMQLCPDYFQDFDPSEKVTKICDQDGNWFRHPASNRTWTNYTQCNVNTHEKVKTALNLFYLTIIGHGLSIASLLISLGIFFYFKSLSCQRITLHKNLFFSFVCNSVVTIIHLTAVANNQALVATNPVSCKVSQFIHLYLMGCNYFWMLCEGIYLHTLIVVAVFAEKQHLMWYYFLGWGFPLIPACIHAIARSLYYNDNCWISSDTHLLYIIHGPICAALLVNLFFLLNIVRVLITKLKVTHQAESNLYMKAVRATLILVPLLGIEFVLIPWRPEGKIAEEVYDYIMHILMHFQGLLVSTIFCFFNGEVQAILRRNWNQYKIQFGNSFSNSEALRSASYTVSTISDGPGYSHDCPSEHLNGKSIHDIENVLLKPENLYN
hAM1 receptor, sequence (O60895 43-175 partner): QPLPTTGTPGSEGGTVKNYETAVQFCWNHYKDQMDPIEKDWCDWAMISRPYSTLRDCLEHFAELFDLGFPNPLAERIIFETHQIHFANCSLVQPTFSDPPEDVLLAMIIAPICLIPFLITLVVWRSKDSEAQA
Summary of the method: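 cAMP accumulation was measured in a monoclonal cell line stably overexpressing the hAM1 receptor. Frozen aliquots were thawed and plated at 8000 cells/well in DPBS containing 0.05% casein and 0.5 mM IBMX.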

[2] = target: T1, hAMY3 receptor (Homo sapiens, UniProt O60896+P30988); assay: cAMP assay for in vitro receptor activation, hAMY3-R; type: cell-based; details: cAMP assay, hAMY3 receptor; read-out: hAMY3R EC50
T1 sequence (P30988 25-474): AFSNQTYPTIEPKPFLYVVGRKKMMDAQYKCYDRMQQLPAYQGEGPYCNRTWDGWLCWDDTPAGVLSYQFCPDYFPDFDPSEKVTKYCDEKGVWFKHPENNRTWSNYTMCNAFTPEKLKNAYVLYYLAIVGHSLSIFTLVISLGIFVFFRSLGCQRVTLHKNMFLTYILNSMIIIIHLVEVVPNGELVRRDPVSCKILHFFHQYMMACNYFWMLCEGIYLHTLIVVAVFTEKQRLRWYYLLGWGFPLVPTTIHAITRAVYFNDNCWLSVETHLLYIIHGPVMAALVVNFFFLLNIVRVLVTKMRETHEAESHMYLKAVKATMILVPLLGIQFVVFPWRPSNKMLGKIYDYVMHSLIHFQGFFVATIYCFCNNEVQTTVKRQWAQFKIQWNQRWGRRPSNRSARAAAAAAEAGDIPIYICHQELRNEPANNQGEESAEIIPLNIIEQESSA
T1 sequence (O60896 24-148 partner): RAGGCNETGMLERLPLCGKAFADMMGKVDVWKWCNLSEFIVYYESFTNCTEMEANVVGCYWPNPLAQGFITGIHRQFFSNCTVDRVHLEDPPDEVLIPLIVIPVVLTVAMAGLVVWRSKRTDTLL
Summary of the method: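 Monoclonal cell line stably overexpressing hAMY3 receptor, plated in DPBS with 0.05% casein and 0.5 mM IBMX, was stimulated with graded compound doses for 30 min at room temperature. cAMP accumulation was read by time-resolved FRET one hour after adding detection reagents.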

Structure (SMILES) | EC50 [1] [nM] | EC50 [2] [nM]
CC[C@H](C)[C@H](NC(=O)[C@H](CCC(N)=O)NC(=O)[C@H](Cc1c[nH]cn1)NC(=O)[C@H](C)NC(=O)[C@H](CC(C)C)NC(=O)[C@H](CCCNC(=N)N)NC(=O)[C@H](CCC(N)=O)NC(=O)[C@@H](NC(=O)[C@@H](NC(=O)[C@@H]1CSSC[C@H](NC(=O)[C@H](CCCCN)NC(=O)CC[C@H](NC(=O)CCCCCCCCCCCCCCCCCCC(=O)O)C(=O)O)C(=O)N[C@@H](CC(N)=O)C(=O)N[C@@H]([C@@H](C)O)C(=O)N[C@@H](C)C(=O)N[C@@H]([C@@H](C)O)C(=O)N1)[C@@H](C)O)C(C)C)C(=O)N[C@@H](C)C(=O)N[C@@H](CCC(N)=O)C(=O)N[C@@H](Cc1ccccc1)C(=O)N[C@H](C(=O)N[C@@H](CC(=O)O)C(=O)N[C@@H](CCCCN)C(=O)N[C@@H](CC(=O)O)C(=O)N[C@@H](CCCCN)C(=O)N[C@@H](CC(=O)O)C(=O)N[C@@H](CC(N)=O)C(=O)N[C@H](C(=O)N[C@@H](C)C(=O)N1CCC[C@H]1C(=O)N1CCC[C@H]1C(=O)N[C@H](C(=O)N[C@@H](CC(N)=O)C(=O)N[C@H](C(=O)NCC(=O)N[C@@H](CO)C(=O)N[C@@H](CC(N)=O)C(=O)NCC(=O)N1C[C@H](O)C[C@H]1C(N)=O)C(C)C)[C@@H](C)O)C(C)C)[C@@H](C)O [compound 61] ({C20 diacid-γGlu}-KCNTATCTVQRLAHQIAQFTDKDKDNVAPPTNVGSNG[Hyp]-NH2; disulfide 2-7) | > 5000 | 0.012
CC[C@H](C)[C@H](NC(=O)[C@H](CCC(N)=O)NC(=O)[C@H](Cc1c[nH]cn1)NC(=O)[C@H](C)NC(=O)[C@H](CC(C)C)NC(=O)[C@H](CCCNC(=N)N)NC(=O)[C@H](CCC(N)=O)NC(=O)[C@@H](NC(=O)[C@@H](NC(=O)[C@@H]1CSSC[C@H](NC(=O)[C@H](CCCCN)NC(=O)CC[C@H](NC(=O)CCCCCCCCCCCCCCCCCCC(=O)O)C(=O)O)C(=O)N[C@@H](CC(N)=O)C(=O)N[C@@H]([C@@H](C)O)C(=O)N[C@@H](CO)C(=O)N[C@@H]([C@@H](C)O)C(=O)N1)[C@@H](C)O)C(C)C)C(=O)N[C@@H](C)C(=O)N[C@@H](CCC(N)=O)C(=O)N[C@@H](Cc1ccccc1)C(=O)N[C@H](C(=O)N[C@@H](CC(=O)O)C(=O)N[C@@H](CCCCN)C(=O)N[C@@H](CC(=O)O)C(=O)N[C@@H](CCCCN)C(=O)N[C@@H](CC(=O)O)C(=O)N[C@@H](CC(N)=O)C(=O)N[C@H](C(=O)N[C@@H](C)C(=O)N1CCC[C@H]1C(=O)N1CCC[C@H]1C(=O)N[C@H](C(=O)N[C@@H](CC(N)=O)C(=O)N[C@H](C(=O)NCC(=O)N[C@@H](CO)C(=O)N[C@@H](CC(N)=O)C(=O)NCC(=O)N1C[C@H](O)C[C@H]1C(N)=O)C(C)C)[C@@H](C)O)C(C)C)[C@@H](C)O [compound 62] ({C20 diacid-γGlu}-KCNTSTCTVQRLAHQIAQFTDKDKDNVAPPTNVGSNG[Hyp]-NH2; disulfide 2-7) | > 5000 | 0.012
CC[C@H](C)[C@H](NC(=O)[C@H](CCC(N)=O)NC(=O)[C@H](CCC(=O)O)NC(=O)[C@H](C)NC(=O)[C@H](CC(C)C)NC(=O)[C@H](CCCNC(=N)N)NC(=O)[C@H](CCC(N)=O)NC(=O)[C@@H](NC(=O)[C@@H](NC(=O)[C@@H]1CSSC[C@H](NC(=O)[C@H](CCCCN)NC(=O)CC[C@H](NC(=O)CCCCCCCCCCCCCCCCCCC(=O)O)C(=O)O)C(=O)N[C@@H](CC(N)=O)C(=O)N[C@@H]([C@@H](C)O)C(=O)N[C@@H](C)C(=O)N[C@@H]([C@@H](C)O)C(=O)N1)[C@@H](C)O)C(C)C)C(=O)N[C@@H](Cc1ccc(O)cc1)C(=O)N[C@@H](CCC(N)=O)C(=O)N[C@@H](Cc1ccccc1)C(=O)N[C@H](C(=O)N[C@@H](CC(=O)O)C(=O)N[C@@H](CCCCN)C(=O)N[C@@H](CC(=O)O)C(=O)N[C@@H](CCCCN)C(=O)N[C@@H](CC(=O)O)C(=O)N[C@@H](CC(N)=O)C(=O)N[C@H](C(=O)N[C@@H](C)C(=O)N1CCC[C@H]1C(=O)N1CCC[C@H]1C(=O)N[C@H](C(=O)N[C@@H](C)C(=O)N[C@H](C(=O)NCC(=O)N[C@@H](CO)C(=O)N[C@@H](CC(N)=O)C(=O)NCC(=O)N1C[C@H](O)C[C@H]1C(N)=O)C(C)C)[C@@H](C)O)C(C)C)[C@@H](C)O [compound 63] ({C20 diacid-γGlu}-KCNTATCTVQRLAEQIYQFTDKDKDNVAPPTAVGSNG[Hyp]-NH2; disulfide 2-7) | > 5000 | 0.012
